Measured values from ChEMBL document CHEMBL1955741, “Identification of fused bicyclic heterocycles as potent and selective 5-HT(2A) receptor antagonists for the treatment of insomnia” (Bioorg Med Chem Lett, 2012).
The source made the active and inactive calls. The rule behind the calls is not given here.

Columns and labels:
[1] = molecular target: T1, 5-hydroxytryptamine receptor 2C (Homo sapiens, UniProt P28335)
T1 sequence (P28335 whole entry): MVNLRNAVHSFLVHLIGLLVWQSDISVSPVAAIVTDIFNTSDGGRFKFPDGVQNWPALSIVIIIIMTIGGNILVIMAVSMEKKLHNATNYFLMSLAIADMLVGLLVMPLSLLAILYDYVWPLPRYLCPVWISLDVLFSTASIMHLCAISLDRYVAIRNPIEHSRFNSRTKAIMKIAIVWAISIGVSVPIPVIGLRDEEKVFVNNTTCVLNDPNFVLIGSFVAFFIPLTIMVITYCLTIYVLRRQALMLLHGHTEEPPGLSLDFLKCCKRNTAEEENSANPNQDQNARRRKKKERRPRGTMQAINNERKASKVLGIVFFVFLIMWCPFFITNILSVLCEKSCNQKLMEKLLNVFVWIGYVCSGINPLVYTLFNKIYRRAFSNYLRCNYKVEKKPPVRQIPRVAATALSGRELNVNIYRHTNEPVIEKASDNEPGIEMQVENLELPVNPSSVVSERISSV

[2] = molecular target: 5-hydroxytryptamine receptor 2A (Homo sapiens, UniProt P28223)
Sequence of 5-hydroxytryptamine receptor 2A (P28223 whole entry): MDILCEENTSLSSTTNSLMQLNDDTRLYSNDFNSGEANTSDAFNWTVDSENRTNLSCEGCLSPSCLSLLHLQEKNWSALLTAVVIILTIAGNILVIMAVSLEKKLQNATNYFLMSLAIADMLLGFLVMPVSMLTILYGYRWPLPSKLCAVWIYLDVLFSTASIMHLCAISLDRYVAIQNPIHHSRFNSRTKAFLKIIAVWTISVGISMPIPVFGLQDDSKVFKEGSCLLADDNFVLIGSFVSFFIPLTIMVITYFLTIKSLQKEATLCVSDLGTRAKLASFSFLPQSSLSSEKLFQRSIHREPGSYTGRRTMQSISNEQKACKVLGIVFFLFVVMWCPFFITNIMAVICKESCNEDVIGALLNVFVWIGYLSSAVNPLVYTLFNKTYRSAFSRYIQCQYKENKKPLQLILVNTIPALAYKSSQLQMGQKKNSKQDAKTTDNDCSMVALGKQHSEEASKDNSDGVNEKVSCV
Description: Displacement of [125I]-DOI from recombinant human 5HT2A receptor

Rattus norvegicus = assay: Inhibition of DOI-induced hypolocomotion in rat at 1 mg/kg coadministered with DOI 10 mins prior testing; assay type: functional, organism-based; design: dose 1 mg/kg

SMILES	Ki [1]	Ki [2]	Activity (Rattus norvegicus)
Cn1cc(Br)c(C(=O)N2CCN(CC(=O)c3ccc(F)cc3)CC2)n1	–	–	Active
O=C(c1nc2ccccn2c1Br)N1CCN(CCc2ccc(F)cc2F)CC1	581 nM	1.9 nM	–
O=C(c1nn2ccccc2c1Br)N1CCN(CCc2ccc(F)cc2F)CC1	496 nM	0.8 nM	–
O=C(c1cn2ccccc2n1)N1CCN(CCc2ccc(F)cc2F)CC1	596 nM	4.3 nM	–
O=C(c1cc2ncccn2n1)N1CCN(CCc2ccc(F)cc2F)CC1	1360 nM	5.6 nM	–
O=C(c1cccn2cc(Br)nc12)N1CCN(CCc2ccc(F)cc2F)CC1	682 nM	1.7 nM	–

Now from value to molecule, other results behind:

Ki [1]	Ki [2]	SMILES	Activity (Rattus norvegicus)
717 nM	2.6 nM	O=C(c1cc2n(n1)CCCC2)N1CCN(CCc2ccc(F)cc2F)CC1	–
910 nM	3.8 nM	O=C(c1cnn2cccnc12)N1CCN(CCc2ccc(F)cc2F)CC1	–
153 nM	3.6 nM	Cc1cc(C)n2ccnc2c1C(=O)N1CCN(CCc2ccc(F)cc2F)CC1	–
246 nM	1.8 nM	O=C(c1cnn2ccccc12)N1CCN(CCc2ccc(F)cc2F)CC1	–
997 nM	3.5 nM	Cc1nc2ccccn2c1C(=O)N1CCN(CCc2ccc(F)cc2F)CC1	–
467 nM	5.7 nM	O=C(c1cc2ccccn2n1)N1CCN(CCc2ccc(F)cc2F)CC1	–
